# According to paper PMC6370202, “The catabolism of 3,3’-thiodipropionic acid in Variovorax paradoxus strain TBEA6: A proteomic analysis” (PLoS ONE, 2019):
# Tests used:
# [1] = biological target: T1, Ech-20 (VPARA_05520) (Variovorax paradoxus, UniProt A0A0H2MCT8); assay: thermal shift assay, SYPRO Orange; type: binding; settings: 2 uM protein, 2 mM ligand, 100 mM Tris/HCl pH 8.0; increased stability; no shift with TDP
# T1 construct: recombinant from pET-32a(+)::ech-20 in E. coli BL21 (DE3) pLysS; Ni-Sepharose purified
# T1 sequence (A0A0H2MCT8 1-154): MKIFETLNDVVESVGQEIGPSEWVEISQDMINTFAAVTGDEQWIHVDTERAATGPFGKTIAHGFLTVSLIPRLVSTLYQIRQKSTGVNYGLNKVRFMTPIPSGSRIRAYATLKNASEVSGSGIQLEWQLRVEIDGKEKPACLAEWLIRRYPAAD
# [2] = biological target: T2, PctRe (propionyl-CoA transferase of Ralstonia eutropha) (Cupriavidus necator, UniProt Q0K874); assay: enzymatic CoA transfer, product by HPLC/MS; type: biochemical; settings: 2 mM TDP, 1 mM acetyl-CoA, 20 ug PctRe in 1 ml, 100 mM Tris/HCl pH 8.0, 30 °C, 45 min
# T2 construct: gene pct; recombinant from pET-19b::pctRe in E. coli BL21 (DE3) pLysS; N-terminal His-tag; Ni-Sepharose purified
# T2 sequence (Q0K874 1-542): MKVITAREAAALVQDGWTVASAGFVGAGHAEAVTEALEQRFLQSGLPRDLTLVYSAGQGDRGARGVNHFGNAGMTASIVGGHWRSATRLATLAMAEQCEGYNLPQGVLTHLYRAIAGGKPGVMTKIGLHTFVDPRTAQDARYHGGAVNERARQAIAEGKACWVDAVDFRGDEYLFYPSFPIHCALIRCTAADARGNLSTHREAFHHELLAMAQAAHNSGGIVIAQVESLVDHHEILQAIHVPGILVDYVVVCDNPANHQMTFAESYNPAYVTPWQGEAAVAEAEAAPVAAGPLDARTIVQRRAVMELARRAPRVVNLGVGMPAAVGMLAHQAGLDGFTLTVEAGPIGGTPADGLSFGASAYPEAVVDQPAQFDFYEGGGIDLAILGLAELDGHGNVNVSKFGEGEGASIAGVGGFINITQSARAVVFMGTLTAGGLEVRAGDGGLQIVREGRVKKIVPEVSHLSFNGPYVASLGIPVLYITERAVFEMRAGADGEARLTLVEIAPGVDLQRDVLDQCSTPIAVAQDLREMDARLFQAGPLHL
smiles,measurement,setting,value
CC(C)(COP(=O)(O)OP(=O)(O)OC[C@H]1O[C@@H](n2cnc3c(N)ncnc32)[C@H](O)[C@@H]1OP(=O)(O)O)[C@@H](O)C(=O)NCCC(=O)NCCSC(=O)CCSCCC(=O)O [TDP-CoA],shift in the melting temperature,[1],a shift in the melting temperature of Ech-20 in the presence of TDP-CoA was detected
O=C(O)CCSCCC(=O)O [TDP],"enzymatic CoA transfer, product by HPLC/MS",[2],transfer of CoA from acetyl-CoA to TDP was accomplished using recombinant PctRe
CC(=O)SCCNC(=O)CCNC(=O)[C@H](O)C(C)(C)COP(=O)(O)OP(=O)(O)OC[C@H]1O[C@@H](n2cnc3c(N)ncnc32)[C@H](O)[C@@H]1OP(=O)(O)O [acetyl-CoA],"enzymatic CoA transfer, product by HPLC/MS",[2]; CoA donor,transfer of CoA from acetyl-CoA to TDP was accomplished using recombinant PctRe
